Assay results as given in patent US7947726B2, “Non-steroidal ligands for the glucocorticoid receptor, and compositions thereof” (The Regents of the University of California, priority 2002, dated 2011).
Values joined by “and” are separate entries in the source; they are usually repeats but may differ in a detail not shown here. Equal entries are not always repeated. Where two headings read alike, the source gives them in different places.

What was measured:
GR = target: T1, GR (Homo sapiens, UniProt P04150); test: GRE (TAT3-Luc) activation luciferase assay in CV-1 cells transfected with GR; assay type: cell-based
T1 construct: expressed in transfected cells; host or cells: CV-1 cells, transient transfection (plasmid a gift of Keith Yamamoto, UCSF)
T1 sequence (P04150 1-777): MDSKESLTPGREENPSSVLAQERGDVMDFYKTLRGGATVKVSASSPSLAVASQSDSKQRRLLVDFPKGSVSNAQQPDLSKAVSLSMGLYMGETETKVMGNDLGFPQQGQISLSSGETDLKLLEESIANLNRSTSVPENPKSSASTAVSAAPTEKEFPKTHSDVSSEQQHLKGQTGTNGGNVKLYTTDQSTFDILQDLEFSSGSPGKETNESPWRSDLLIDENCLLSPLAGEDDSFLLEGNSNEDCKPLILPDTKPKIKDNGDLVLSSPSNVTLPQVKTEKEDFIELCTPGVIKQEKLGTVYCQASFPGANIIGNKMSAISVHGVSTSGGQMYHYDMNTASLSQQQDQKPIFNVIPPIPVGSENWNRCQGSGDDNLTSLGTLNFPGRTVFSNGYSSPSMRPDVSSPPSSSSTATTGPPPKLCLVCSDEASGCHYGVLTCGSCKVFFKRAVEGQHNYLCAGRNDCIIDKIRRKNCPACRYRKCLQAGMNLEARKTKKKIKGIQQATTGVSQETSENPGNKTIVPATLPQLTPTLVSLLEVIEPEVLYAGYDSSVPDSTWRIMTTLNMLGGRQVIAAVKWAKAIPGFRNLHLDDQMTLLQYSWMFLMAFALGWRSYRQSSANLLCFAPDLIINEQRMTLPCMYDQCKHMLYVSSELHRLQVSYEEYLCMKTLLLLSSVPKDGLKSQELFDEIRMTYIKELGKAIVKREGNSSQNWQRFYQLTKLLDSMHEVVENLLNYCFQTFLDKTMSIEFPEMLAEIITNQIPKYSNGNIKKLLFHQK
Protocol: Cells were plated into tissue culture treated, 96 well flat bottom plates (25,000 cells/well), and incubated for 12 h at 37° C. Cells were then transfected using the Lipofectamine PLUS transfection reagent (Gibco BRL). DNA-lipid complexes of 5 ng GR, 50 ng TAT3-Luc, 7.5 ng β-galactosidase, 1 μL-well PLUS reagent and 0.67 μL-well lipofectamine in 50 μL/well serum free media were added to cells and incubated for 4 h at 37° C. Complexes were removed and hormones diluted in 5% charcoal-stripped FBS were added to the cells, which were then incubated for 24 hours at 37° C. Media was removed and the cells were washed with 100 μL Ca^+2, Mg^+2 free phosphate buffered saline (PBS). Lysis was achieved by adding 50 μL of Passive Lysis Buffer (Promega Corp, Madison, Wis.) and shaking the plate for 15 min. 15 μL of this lysate was then used to assay β-galactosidase activity (β-galactosidase enzyme assay system, Promega Corp., recommended procedures followed). The Luciferase Assay System (Promega Corp.) was used to assay luciferase activity. 100 μL of luciferase assay reagent was added rapidly to the plate and luminescence was measured for 10 ms/well on an Analyst AD Detection System (LJL Biosystems, Sunnyvale, Calif.).

PR = target: T2, PR (Homo sapiens, UniProt P06401); test: PR activation (max fold activation); assay type: cell-based; details: Table 4
T2 sequence (P06401 1-933): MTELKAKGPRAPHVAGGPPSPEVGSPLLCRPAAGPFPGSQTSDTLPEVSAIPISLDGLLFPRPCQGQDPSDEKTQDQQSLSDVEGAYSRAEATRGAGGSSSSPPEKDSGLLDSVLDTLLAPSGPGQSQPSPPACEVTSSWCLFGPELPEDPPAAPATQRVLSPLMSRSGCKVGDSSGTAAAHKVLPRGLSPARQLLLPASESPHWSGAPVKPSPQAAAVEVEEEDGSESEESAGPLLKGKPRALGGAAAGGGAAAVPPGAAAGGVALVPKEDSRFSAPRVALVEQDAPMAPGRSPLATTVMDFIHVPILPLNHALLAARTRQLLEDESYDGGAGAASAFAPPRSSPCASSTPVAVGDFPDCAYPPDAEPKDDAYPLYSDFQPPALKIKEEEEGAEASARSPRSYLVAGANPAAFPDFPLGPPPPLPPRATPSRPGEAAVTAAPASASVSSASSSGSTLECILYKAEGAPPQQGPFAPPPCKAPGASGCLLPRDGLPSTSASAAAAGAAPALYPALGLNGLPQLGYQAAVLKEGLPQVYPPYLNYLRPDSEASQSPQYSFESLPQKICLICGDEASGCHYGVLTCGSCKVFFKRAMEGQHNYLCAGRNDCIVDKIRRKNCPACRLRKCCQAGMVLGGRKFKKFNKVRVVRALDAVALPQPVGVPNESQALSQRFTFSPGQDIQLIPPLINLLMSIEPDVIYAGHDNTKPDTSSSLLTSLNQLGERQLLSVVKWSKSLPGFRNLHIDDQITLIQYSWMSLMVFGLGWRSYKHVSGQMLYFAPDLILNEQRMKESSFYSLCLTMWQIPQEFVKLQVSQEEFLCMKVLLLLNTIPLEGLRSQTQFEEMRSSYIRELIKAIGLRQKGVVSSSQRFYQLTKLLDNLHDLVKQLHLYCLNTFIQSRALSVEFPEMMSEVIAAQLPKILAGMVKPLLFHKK

Coll A = Coll A repression; assay type: cell-based; details: Table 5; for Emax: read-out: Repression Coll A % max repression; for EC50: read-out: Repression Coll A pot (EC50)
[1] = target: T3, glucocorticoid receptor (GR) (Homo sapiens, UniProt P04150); test: Glucocorticoid Receptor Competitor Assay Kit (Panvera) ligand binding; details: relative binding affinity, dexamethasone = 100; for GR binding RBA (dex = 100): Table 3
T3 construct: purchased Panvera Corp, Madison, Wis
T3 sequence (P04150 1-777): T1 sequence (P04150 1-777)
Excerpt: The Glucocorticoid Receptor Competitor Assay Kit (Panvera Corp, Madison, Wis.) was used for ligand binding studies. The recommended room temperature protocol was followed for all assayed ligands.

[2] = Table 4, read-out: GR pot (EC50)

Row | GRE activation max fold activation (GR; Table 4) | EC50 (GR; [2]) | PR max fold activation (PR) | EC50 (Coll A) | GR Binding RBA (dexamethasone = 100) ([1]; Table 1) | GR binding RBA (dex = 100) [1] | EC50 (GR; Table 1, read-out: GR pot(EC50)) | SMILES | Emax (Coll A)
1 | 86 ± 4 and 112 ± 75 | 251 nM and 230 nM | 155 ± 32 and 109 ± 10 | 27 nM | – | – | – | CC12Cc3cnn(-c4ccc(F)cc4)c3C=C1CCCC2C(O)c1ccsc1 (stereo not drawn) [Compound 238, [1-(4-Fluoro-phenyl)-4a-methyl-4,4a-5,6,7,8-hexahydro-1H-benzo[f]indazol-5-yl]-thiophen-3-yl-methanol] | 68%
2 | 95 ± 23 | 130 ± 43 nM | 144 ± 32 | 6.9 nM | 50 | 103 | 125 nM | Cc1cc(O)cc(C)c1C(O)C1CCCC2=Cc3c(cnn3-c3ccc(F)cc3)CC21C (stereo not drawn) [Compound 227, 4-{[1-(4-Fluoro-phenyl)-4a-methyl-4,4a,5,6,7,8-hexahydro-1H-benzo[f]indazol-5-yl]-hydroxy-methyl}-3,5-dimethyl-phenol] | 75%
3 | 92 ± 18 | 149 ± 91 nM | – | 8.1 nM | – | 110 | – | CC12Cc3cnn(-c4ccc(F)cc4)c3C=C1CCCC2C(O)c1cccc2[nH]ccc12 (stereo not drawn) [Compound 237, [1-(4-Fluoro-phenyl)-4a-methyl-4,4a,5,6,7,8-hexahydro-1H-benzo[f]indazol-5-yl]-(1H-indol-4-yl)-methanol] | 75%
